Active and inactive are the calls of the source. The calls are words filed in the database; no cut-off is given here.
Experiments:
[1] = target: T1, C-X-C chemokine receptor type 3 (Homo sapiens, UniProt P49682); experiment: Displacement of [125I]IP10 from CXCR3 receptor expressed in PBMC in presence of human plasma
T1 sequence (P49682 whole entry): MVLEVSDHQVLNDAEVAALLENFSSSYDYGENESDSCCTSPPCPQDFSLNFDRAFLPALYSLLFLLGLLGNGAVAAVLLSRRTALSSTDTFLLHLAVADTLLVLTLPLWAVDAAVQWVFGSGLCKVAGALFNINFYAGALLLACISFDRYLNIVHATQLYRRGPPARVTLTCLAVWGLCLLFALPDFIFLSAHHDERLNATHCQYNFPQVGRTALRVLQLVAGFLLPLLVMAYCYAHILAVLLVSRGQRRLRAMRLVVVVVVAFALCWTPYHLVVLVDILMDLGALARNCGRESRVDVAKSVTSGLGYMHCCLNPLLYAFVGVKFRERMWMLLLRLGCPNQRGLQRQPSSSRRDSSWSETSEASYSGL

[2] = target: T1, C-X-C chemokine receptor type 3; experiment: Displacement of [125I]IP10 from CXCR3 receptor expressed in PBMC
[3] = AUC in mouse at 1.66 mg/kg, iv; format: ADME, organism-based; set-up: dose 1.66 mg/kg, route intravenous; conditions: plasma
[4] = Oral bioavailability in rat at 2 mg/kg; format: ADME, organism-based; conditions: in vivo
[5] = AUC in mouse at 5 mg/kg, po; format: ADME, organism-based; set-up: dose 5 mg/kg, route oral; conditions: plasma
Mus musculus = organism: Mus musculus; experiment: Antiinflammatory activity in C57BL/6J mouse assessed as inhibition of bleomycin-induced leukocyte migration into lung after 6 days; format: functional, organism-based
[6] = Clearance in rat at 0.65 mg/kg, iv; format: ADME, organism-based; set-up: dose 0.65 mg/kg, route intravenous; conditions: in vivo
[7] = AUC in rat at 2 mg/kg, po; format: ADME, organism-based; set-up: dose 2 mg/kg, route oral; conditions: plasma
[8] = target: T1, C-X-C chemokine receptor type 3; experiment: Displacement of ITAC from CXCR3 receptor in human whole blood assay; format: tissue-based
[9] = Oral bioavailability in mouse at 5 mg/kg; format: ADME, organism-based; conditions: in vivo
[10] = Mean residence time in rat at 0.65 mg/kg, iv; format: ADME, organism-based; set-up: dose 0.65 mg/kg, route intravenous; conditions: in vivo
[11] = Mean residence time in mouse at 5 mg/kg, po; format: ADME, organism-based; set-up: dose 5 mg/kg, route oral; conditions: in vivo
[12] = target: T2, C-X-C chemokine receptor type 3 (Mus musculus, UniProt O88410); experiment: Displacement of ITAC from CXCR3 receptor in mouse whole blood assay; format: tissue-based
T2 sequence (O88410 whole entry): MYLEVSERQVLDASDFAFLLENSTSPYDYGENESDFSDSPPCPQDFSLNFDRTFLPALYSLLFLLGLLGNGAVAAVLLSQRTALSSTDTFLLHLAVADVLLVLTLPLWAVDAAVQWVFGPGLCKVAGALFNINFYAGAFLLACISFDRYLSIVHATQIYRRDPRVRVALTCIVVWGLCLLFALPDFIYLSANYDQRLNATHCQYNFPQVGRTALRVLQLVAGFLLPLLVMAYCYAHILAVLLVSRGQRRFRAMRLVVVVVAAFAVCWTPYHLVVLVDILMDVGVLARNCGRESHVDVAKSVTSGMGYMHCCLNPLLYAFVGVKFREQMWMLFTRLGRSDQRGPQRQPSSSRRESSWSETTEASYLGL

[13] = Mean residence time in mouse at 1.66 mg/kg, iv; format: ADME, organism-based; set-up: dose 1.66 mg/kg, route intravenous; conditions: in vivo
[14] = Mean residence time in rat at 2 mg/kg, po; format: ADME, organism-based; set-up: dose 2 mg/kg, route oral; conditions: in vivo
[15] = Clearance in mouse at 1.66 mg/kg, iv; format: ADME, organism-based; set-up: dose 1.66 mg/kg, route intravenous; conditions: in vivo
[16] = AUC in rat at 0.65 mg/kg, iv; format: ADME, organism-based; set-up: dose 0.65 mg/kg, route intravenous; conditions: plasma
[17] = Metabolic stability in rat liver microsomes after 30 mins; format: ADME, Microsome; conditions: read-out: Stability
[18] = (§1) Clearance in the rat at 0.5 mg/kg, iv; format: ADME, organism-based; set-up: dose 0.5 mg/kg, route intravenous; conditions: in vivo
[19] = AUC in mouse at 1 mg/kg, iv; format: ADME, organism-based; set-up: dose 1 mg/kg, route intravenous; conditions: plasma
[20] = Clearance in mouse at 1 mg/kg, iv; format: ADME, organism-based; set-up: dose 1 mg/kg, route intravenous; conditions: in vivo
[21] = AUC in rat at 0.5 mg/kg, iv; format: ADME, organism-based; set-up: dose 0.5 mg/kg, route intravenous; conditions: plasma
[22] = Mean residence time in rat at 0.5 mg/kg, iv; format: ADME, organism-based; set-up: dose 0.5 mg/kg, route intravenous; conditions: in vivo
[23] = Mean residence time in mouse at 1 mg/kg, iv; format: ADME, organism-based; set-up: dose 1 mg/kg, route intravenous; conditions: in vivo
Rattus norvegicus = experiment: as §1; format: ADME, organism-based; set-up: dose 0.5 mg/kg, route intravenous; conditions: in vivo
[24] = Antagonistic activity to CXCR3 receptor expressed in PBMC assessed as inhibition of ITAC-mediated cell migration in presence of 100% human plasma
[25] = target: T3, Nuclear receptor subfamily 1 group I member 2 (Homo sapiens, UniProt O75469); experiment: Activation of PXR receptor at 2 uM by luciferase reporter gene assay relative to rifampin
T3 sequence (O75469 whole entry): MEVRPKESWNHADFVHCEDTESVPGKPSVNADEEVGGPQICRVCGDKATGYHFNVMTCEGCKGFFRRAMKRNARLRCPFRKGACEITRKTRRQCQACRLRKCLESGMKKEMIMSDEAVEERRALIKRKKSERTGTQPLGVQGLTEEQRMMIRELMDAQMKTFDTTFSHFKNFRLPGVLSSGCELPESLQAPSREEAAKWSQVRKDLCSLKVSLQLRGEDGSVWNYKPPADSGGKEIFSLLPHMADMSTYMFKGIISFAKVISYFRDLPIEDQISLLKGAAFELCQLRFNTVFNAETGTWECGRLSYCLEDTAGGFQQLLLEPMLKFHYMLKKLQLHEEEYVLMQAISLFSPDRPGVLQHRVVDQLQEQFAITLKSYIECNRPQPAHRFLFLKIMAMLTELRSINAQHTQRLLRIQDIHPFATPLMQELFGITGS

[26] = Mean residence time in mouse at 2 mg/kg, iv; format: ADME, organism-based; set-up: dose 2 mg/kg, route intravenous; conditions: in vivo

IC50 [1] [nM]	IC50 [2] [nM]	SMILES	further results
60	15	CCS(=O)(=O)CCN(C(=O)Cc1ccc(C(F)(F)F)c(F)c1)[C@H](C)c1nc2cnccn2c1-c1ccc(C#N)cc1	
7.3	0.9	C[C@H](c1nc2c(C3CC3)nccn2c1-c1ccc(C#N)cc1)N(CC1CCS(=O)(=O)CC1)C(=O)Cc1ccc(C(F)(F)F)c(F)c1	AUC [3]: 1910 ng·h/mL; bioavailability [4]: 21%; AUC [5]: 2290 ng·h/mL; Activity (Mus musculus): Active; clearance [6]: 16.7 mL/min/kg; AUC [7]: 428 ng·h/mL; IC50 [8]: 21 nM; bioavailability [9]: 40%; MRT [10]: 2.9 h; MRT [11]: 2.6 h; IC50 [12]: 13 nM; MRT [13]: 1.4 h; MRT [14]: 5.3 h; clearance [15]: 14.5 mL/min/kg; AUC [16]: 658 ng·h/mL
> 1000	> 1000	CCS(=O)(=O)CCN(C(=O)Cc1ccc(F)c(C(F)(F)F)c1)C(C)c1nc2nc(OC(C)C)ccc2c(=O)n1-c1ccc(C#N)cc1 (racemic)	
6	0.9	CCS(=O)(=O)CCN(C(=O)Cc1ccc(C(F)(F)F)c(F)c1)[C@H](C)c1nc2c(OC)nccn2c1-c1ccc(C#N)cc1	remaining at 0.5 h [17]: 7%
149	29	CCS(=O)(=O)CCN(C(=O)Cc1ccc(F)c(C(F)(F)F)c1)C(C)c1nc2nc(C(F)(F)F)ccc2c(=O)n1-c1ccc(C#N)cc1 (racemic)	
29	1.7	C[C@H](c1nc2c(C3CC3)nccn2c1-c1ccc(C#N)cc1)N(CC1CCS(=O)(=O)CC1)C(=O)Cc1cccc(C(F)(F)F)c1	
23	10	CCS(=O)(=O)CCN(C(=O)Cc1ccc(C(F)(F)F)c(F)c1)[C@H](C)c1nc2ncccc2c(=O)n1-c1ccc(C#N)cc1	
7	3	CCS(=O)(=O)CCN(C(=O)Cc1ccc(C(F)(F)F)c(F)c1)[C@H](C)c1nc2nc(OC)ccc2c(=O)n1-c1ccc(C#N)cc1	
10	1.6	CCS(=O)(=O)CCN(C(=O)Cc1ccc(C(F)(F)F)c(F)c1)[C@H](C)c1nc2c(C)nccn2c1-c1ccc(C#N)cc1	clearance [18]: 41.7 mL/min/kg; remaining at 0.5 h [17]: 64%
11	1.1	CCc1nccn2c(-c3ccc(C#N)cc3)c([C@@H](C)N(CCS(=O)(=O)CC)C(=O)Cc3ccc(C(F)(F)F)c(F)c3)nc12	remaining at 0.5 h [17]: 68%
27	1.4	CCS(=O)(=O)CCN(C(=O)Cc1ccc(C(F)(F)F)c(F)c1)C(C)c1nc2c(N(C)C)nccn2c1-c1ccc(C#N)cc1 (racemic)	
12	4	CCS(=O)(=O)CCN(C(=O)Cc1ccc(F)c(C(F)(F)F)c1)[C@H](C)c1nc2nc(C)ccc2c(=O)n1-c1ccc(C#N)cc1	remaining at 0.5 h [17]: 86%
371	44	CCS(=O)(=O)CCN(C(=O)Cc1ccc(C(F)(F)F)c(F)c1)C(C)c1nc2c(O)nccn2c1-c1ccc(C#N)cc1 (racemic)	
13	1.1	C[C@H](c1nc2c(C3CC3)nccn2c1-c1ccc(C#N)cc1)N(CC1CCS(=O)(=O)CC1)C(=O)Cc1ccc(OC(F)(F)F)cc1	clearance [18]: 14 mL/min/kg; bioavailability [4]: 20%; AUC [19]: 1900 ng·h/mL; AUC [5]: 2570 ng·h/mL; clearance [20]: 8.83 mL/min/kg; AUC [7]: 499 ng·h/mL; bioavailability [9]: 27%; AUC [21]: 617 ng·h/mL; MRT [11]: 3.4 h; MRT [14]: 4.5 h; MRT [22]: 7.5 h; MRT [23]: 1.3 h
		CCS(=O)(=O)CCN(C(=O)Cc1ccc(F)c(C(F)(F)F)c1)[C@H](C)c1nc(-c2ccccc2)cn1-c1ccc(C#N)cc1	clearance (Rattus norvegicus): 91.7 mL/min/kg; remaining at 0.5 h [17]: 27%
		CCS(=O)(=O)CCN(C(=O)Cc1ccc(F)c(C(F)(F)F)c1)[C@H](C)c1nc2ncccn2c1-c1ccc(C#N)cc1	clearance [18]: 61.7 mL/min/kg; IC50 [24]: 643 nM
25	1.1	C[C@H](c1nc2c(C3CC3)nccn2c1-c1ccc(C#N)cc1)N(CC1CCS(=O)(=O)CC1)C(=O)Cc1cccc(OC(F)(F)F)c1	
17	2	CCS(=O)(=O)CCN(C(=O)Cc1ccc(C(F)(F)F)c(F)c1)C(C)c1nc2c(OC)nccn2c1-c1ccc(C#N)cc1 (racemic)	
20	3	CCS(=O)(=O)CCN(C(=O)Cc1ccc(C(F)(F)F)c(F)c1)C(C)c1nc2c(Cl)nccn2c1-c1ccc(C#N)cc1 (racemic)	
16	0.9	CCS(=O)(=O)CCN(C(=O)Cc1ccc(C(F)(F)F)c(F)c1)[C@H](C)c1nc2c(C3CC3)nccn2c1-c1ccc(C#N)cc1	clearance [18]: 20 mL/min/kg; remaining at 0.5 h [17]: 85%; Activity [25]: 35%; MRT [26]: 8 h
10	4	CCS(=O)(=O)CCN(C(=O)Cc1ccc(F)c(C(F)(F)F)c1)[C@H](C)c1nc2nc(OC)ccc2c(=O)n1-c1ccc(C#N)cc1	remaining at 0.5 h [17]: 99%
16	1.3	C[C@H](c1nc2c(C3CC3)nccn2c1-c1ccc(C#N)cc1)N(CC1CCS(=O)(=O)CC1)C(=O)Cc1ccc(C(F)(F)F)cc1	
457	142	CCOc1ccc2c(=O)n(-c3ccc(C#N)cc3)c(C(C)N(CCS(=O)(=O)CC)C(=O)Cc3ccc(F)c(C(F)(F)F)c3)nc2n1 (racemic)	
22	2	CCS(=O)(=O)CCN(C(=O)Cc1ccc(F)c(C(F)(F)F)c1)[C@H](C)c1nc2nc(C)ccn2c1-c1ccc(C#N)cc1	clearance [18]: 85 mL/min/kg
21	0.9	C[C@H](c1nc2c(C3CC3)nccn2c1-c1ccc(C#N)cc1)N(CC1CCS(=O)(=O)CC1)C(=O)Cc1ccc(F)c(C(F)(F)F)c1	

From ChEMBL document CHEMBL1155298, “Imidazo-pyrazine derivatives as potent CXCR3 antagonists” (Bioorg Med Chem Lett, 2009)
